In patent US9609868B2, “Alkoximino-substituted anthranilic acid diamides as pesticides” (BAYER CROPSCIENCE AKTIENGESELLSCHAFT, priority 2013, dated 2017):

Tests used:
Myzus persicae = Myzus persicae - spray test (MYZUPE); type: in vivo; conditions: application rate 100 g/ha, Chinese cabbage leaf disks
Experimental: Myzus persicae—Spray Test (MYZUPE)
Solvent: 78 parts by weight of acetone • • 1.5 parts by weight of dimethylformamide
(§1) Emulsifier: 0.5 parts by weight of alkylaryl polyglycol ether
(§2) To produce a suitable active compound preparation, 1 part by weight of active compound is mixed with the stated amounts of solvent and emulsifier, and the concentrate is diluted with emulsifier-containing water to the desired concentration.
Disks of Chinese cabbage leaves (Brassica pekinensis) infested by all stages of the green peach aphid (Myzus persicae) are sprayed with an active compound preparation of the desired concentration.
After the desired period of time, the efficacy in % is determined. 100% means that all the aphids have been killed; 0% means that none of the aphids have been killed.

Phaedon cochleariae = Phaedon cochleariae - spray test (PHAECO); type: in vivo; conditions: application rate 100 g/ha, Chinese cabbage leaf disks
Experimental: Phaedon cochleariae—Spray Test (PHAECO)
(§3) Solvent: 78.0 parts by weight of acetone • • 1.5 parts by weight of dimethylformamide
as §1, §2
After the desired period of time, the efficacy in % is determined. 100% means that all the beetle larvae have been killed; 0% means that no beetle larvae have been killed.

Spodoptera frugiperda = Spodoptera frugiperda - spray test (SPODFR); type: in vivo; conditions: application rate 100 g/ha, maize leaf disks
Experimental: Spodoptera frugiperda—Spray Test (SPODFR)
as §3, §1, §2
Leaf disks of maize (Zea mays) are sprayed with an active compound preparation of the desired concentration and, after drying, populated with caterpillars of the armyworm (Spodoptera frugiperda).
After the desired period of time, the efficacy in % is determined. 100% means that all the caterpillars have been killed; 0% means that no caterpillars have been killed.

[1] = log P by HPLC on reversed-phase column (C18), EEC directive 79/831 Annex V.A8; type: physicochemical; conditions: HPLC reversed-phase C18, 43° C., data refer to the E isomer
Experimental: The log P values reported in the tables and Preparation Examples above were determined in accordance with EEC directive 79/831 Annex V.A8 by HPLC (High Performance Liquid Chromatography) using a reversed-phase column (C18). Temperature 43° C. The calibration is effected with unbranched alkan-2-ones (having 3 to 16 carbon atoms), for which the log P values are known.

Row | Structure (SMILES) | efficacy (aphids killed) (Myzus persicae) [%] | efficacy (beetle larvae killed) (Phaedon cochleariae) [%] | efficacy (caterpillars killed) (Spodoptera frugiperda) [%] | log p ([1]; Table A) | log p ([1]; Table B) | log p ([1]; Table C)
1 | CON=Cc1cc(C)c(NC(=O)c2cc(C(F)(F)F)nn2-c2ncccc2Cl)c(C(=O)NNC(C)=O)c1 (mixture of isomers) [A-32] | 90 | 100 | 100 | 2.38 |  | 
2 | CON=Cc1cc(C)c(NC(=O)c2cc(OCC(F)(F)F)nn2-c2ncccc2Cl)c(C(=O)NNC(=O)OC)c1 (mixture of isomers) [A-33] | 100 | 100 | 100 | 2.70 |  | 
3 | CCOc1cc(C(=O)Nc2c(C)cc(C=NOC)cc2C(=O)NNC(=O)OC)n(-c2ncccc2Cl)n1 (mixture of isomers) [A-34] | 90 | 100 | 100 | 2.26 |  | 
4 | CON=Cc1cc(C)c(NC(=O)c2cc(OC(C)C)nn2-c2ncccc2Cl)c(C(=O)NNC(=O)OC)c1 (mixture of isomers) [A-35] | 90 | 100 | 100 | 2.54 |  | 
5 | CON=Cc1cc(C)c(NC(=O)c2cc(CF)nn2-c2ncccc2Cl)c(C(=O)NNC(=O)OC)c1 (mixture of isomers) [A-44] | 90 | 100 | 100 | 2.02 |  | 
6 | CON=Cc1cc(C)c(NC(=O)c2cc(Br)nn2-c2ncccc2Cl)c(C(=O)NN(C)C(=O)OC)c1 (mixture of isomers) [A-45] | 100 | 100 | 100 | 2.50 |  | 
7 | CON=Cc1cc(C)c(NC(=O)c2cc(C(F)F)nn2-c2ncccc2Cl)c(C(=O)NN(C)C(=O)OC)c1 (mixture of isomers) [A-47] | 90 | 100 | 100 | 2.21 |  | 
8 | CON=Cc1cc(C)c(NC(=O)c2cc(C(F)(F)F)nn2-c2ncccc2Cl)c(C(=O)N(C)NC(=O)OC)c1 (mixture of isomers) [A-48] | 100 | 100 | 100 | 3.00 |  | 
9 | CON=Cc1cc(C)c(NC(=O)c2cc(OC(F)F)nn2-c2ncccc2Cl)c(C(=O)NN(C)C(=O)OC)c1 (mixture of isomers) [A-49] | 90 | 100 | 100 | 2.60 |  | 
10 | CON=Cc1cc(C)c(NC(=O)c2cc(Br)nn2-c2ncccc2Cl)c(C(=O)NC2COC2)c1 (mixture of isomers) [B-03] | 100 | 100 | 100 |  | 2.44 | 
11 | CON=Cc1cc(C)c(NC(=O)c2cc(C(F)(F)F)nn2-c2ncccc2Cl)c(C(=O)NC2C[S+]([O-])C2)c1 (mixture of isomers) [B-05] | 90 | 100 | 100 |  | 2.51 | 
12 | CON=Cc1cc(C)c(NC(=O)c2cc(C(F)(F)F)nn2-c2ncccc2Cl)c(C(=O)NC2CSC2)c1 (mixture of isomers) [B-06] | 90 | 100 | 100 |  | 3.46 | 
13 | CON=Cc1cc(C)c(NC(=O)c2cc(OC)nn2-c2ncccc2Cl)c(C(=O)NC2COC2)c1 (mixture of isomers) [B-10] | 100 | 100 | 100 |  | 2.04 | 
14 | CON=Cc1cc(C)c(NC(=O)c2cc(C(F)F)nn2-c2ncccc2Cl)c(C(=O)NC2COC2)c1 (mixture of isomers) [B-11] | 100 | 100 | 100 |  | 2.31 | 
15 | CON=Cc1cc(C)c(NC(=O)c2cc(OC)nn2-c2ncccc2Cl)c(C(=O)NC2CC2)c1 (mixture of isomers) [C-30] |  | 100 | 100 |  |  | 2.97
16 | CON=Cc1cc(C)c(NC(=O)c2cc(OC)nn2-c2ncccc2Cl)c(C(=O)NC(C)C2CC2)c1 (mixture of isomers) [C-31] |  | 100 | 100 |  |  | 3.66
17 | CON=Cc1cc(C)c(NC(=O)c2cc(OC)nn2-c2ncccc2Cl)c(C(=O)NC(C)C)c1 (mixture of isomers) [C-32] | 90 | 100 | 100 |  |  | 3.22

Row | Structure (SMILES) | efficacy (aphids killed) (Myzus persicae) [%] | efficacy (beetle larvae killed) (Phaedon cochleariae) [%] | efficacy (caterpillars killed) (Spodoptera frugiperda) [%] | log p ([1]; Table A) | log p ([1]; Table B) | log p ([1]; Table C)
18 | CNC(=O)c1cc(C=NOC)cc(C)c1NC(=O)c1cc(OC)nn1-c1ncccc1Cl (mixture of isomers) [C-33] | 90 | 100 | 100 |  |  | 2.70
19 | CON=Cc1cc(C)c(NC(=O)c2cc(OC)nn2-c2ncccc2Cl)c(C(=O)NC(C)(C)C)c1 (mixture of isomers) [C-37] | 90 | 100 | 100 |  |  | 3.71
20 | CON=Cc1cc(C)c(NC(=O)c2cc(Br)nn2-c2ncccc2Cl)c(C(=O)N(C)NC(=O)OC)c1 [A-03] |  | 100 | 100 | 2.74 |  | 
21 | CON=Cc1cc(C)c(NC(=O)c2cc(Br)nn2-c2ncccc2Cl)c(C(=O)NNC(=O)OC(C)C)c1 [A-06] |  | 100 | 100 | 2.88 |  | 
22 | C#CCOC(=O)NNC(=O)c1cc(C=NOC)cc(C)c1NC(=O)c1cc(Br)nn1-c1ncccc1Cl [A-08] | 100 | 100 | 100 | 2.58 |  | 
23 | CON=Cc1cc(C)c(NC(=O)c2cc(C(F)(F)F)nn2-c2ncccc2Cl)c(C(=O)NNC(=O)OC(C)C)c1 [A-18] |  | 100 | 100 | 3.17 |  | 
24 | COCCOC(=O)NNC(=O)c1cc(C=NOC)cc(C)c1NC(=O)c1cc(C(F)(F)F)nn1-c1ncccc1Cl [A-20] | 90 | 100 | 100 | 2.74 |  | 
25 | C=CCOC(=O)NNC(=O)c1cc(C=NOC)cc(C)c1NC(=O)c1cc(C(F)(F)F)nn1-c1ncccc1Cl [A-21] | 90 | 100 | 100 | 3.04 |  | 
26 | CON=Cc1cc(C)c(NC(=O)c2cc(C(F)(F)F)nn2-c2ncccc2Cl)c(C(=O)NNS(C)(=O)=O)c1 [A-23] | 100 | 100 | 100 | 2.63 |  | 
27 | CON=Cc1cc(C)c(NC(=O)c2cc(C(F)(F)F)nn2-c2ncccc2Cl)c(C(=O)N(C)NC(=O)OC(C)C)c1 [A-25] |  | 100 | 100 | 3.57 |  | 
28 | CON=Cc1cc(C)c(NC(=O)c2cc(C(F)(F)F)nn2-c2ncccc2Cl)c(C(=O)N(C)NS(C)(=O)=O)c1 [A-31] |  | 100 | 100 | 2.88 |  | 
29 | CON=Cc1cc(C)c(NC(=O)c2cc(C(F)(F)F)nn2-c2ncccc2Cl)c(C(=O)NC(C)CSC)c1 (stereo not shown) [C-05] | 100 | 100 | 100 |  |  | 3.72
30 | CON=Cc1cc(C)c(NC(=O)c2cc(OC(C)C)nn2-c2ncccc2Cl)c(C(=O)NC2CC2)c1 [C-06] |  | 100 | 100 |  |  | 2.98
31 | CON=Cc1cc(C)c(NC(=O)c2cc(OC(C)C)nn2-c2ncccc2Cl)c(C(=O)NC(C)C)c1 [C-07] | 90 | 100 | 100 |  |  | 3.29
32 | CON=Cc1cc(C)c(NC(=O)c2cc(OC(C)C)nn2-c2ncccc2Cl)c(C(=O)NC(C)C2CC2)c1 (stereo not shown) [C-08] | 90 | 100 | 100 |  |  | 3.65
33 | CON=Cc1cc(C)c(NC(=O)c2cc(OC(C)C)nn2-c2ncccc2Cl)c(C(=O)NC(C)(C)C)c1 [C-09] | 100 | 100 | 100 |  |  | 3.74
34 | CNC(=O)c1cc(C=NOC)cc(C)c1NC(=O)c1cc(OC(C)C)nn1-c1ncccc1Cl [C-65] |  | 100 | 100 |  |  | 2.75
